Counter-ions that a name gives are not always drawn.
What was measured:
Experiment in all cases: normalized area under the dose-response curve (viability relative to DMSO control) (fraction); higher = less sensitive (more viable cells)
Settings in all cases: exposure time not given
FR4 (cancer type: MM) = test system: FR4 (cancer type: MM)
Protocol: (§1)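 25 myeloma and 15 non-Hodgkin lymphoma cell lines were exposed to each of 76 drugs as 7-point log dilutions (0.01 nM–10 µM) in duplicate. Viability was read with CellTiter-Glo and normalised to DMSO (0.1%) and staurosporine (10 µM) plate controls. Normalised AUC was calculated by the trapezoidal method relative to the negative control.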

[1] = test system: KMS28PE (cancer type: MM)
Protocol: as §1

[2] = test system: Mino (cancer type: Mantle)
Protocol: as §1

[3] = test system: OCI-MY7 (cancer type: MM)
Protocol: as §1

[4] = test system: JeKo-1 (cancer type: Mantle)
Protocol: as §1

[5] = test system: OCI-LY19 (cancer type: DLBCL)
Protocol: as §1

[6] = test system: OCI-MY5/Vec (cancer type: MM)
Protocol: as §1

[7] = test system: SU-DHL1 (cancer type: TCL)
Protocol: as §1

[8] = test system: SU-DHL2 (cancer type: DLBCL)
Protocol: as §1

[9] = test system: Granta-519 (cancer type: Mantle)
Protocol: as §1

[10] = test system: SR-786 (cancer type: TCL)
Protocol: as §1

EJM (cancer type: MM) = test system: EJM (cancer type: MM)
Protocol: as §1

JJN3 (cancer type: MM) = test system: JJN3 (cancer type: MM)
Protocol: as §1

KMS34 (cancer type: MM) = test system: KMS34 (cancer type: MM)
Protocol: as §1

[11] = test system: HuT 78 (cancer type: TCL)
Protocol: as §1

OPM2 (cancer type: MM) = test system: OPM2 (cancer type: MM)
Protocol: as §1

LP1 (cancer type: MM) = test system: LP1 (cancer type: MM)
Protocol: as §1

[12] = test system: RPMI 8226 (cancer type: MM)
Protocol: as §1

[13] = test system: KMS28BM (cancer type: MM)
Protocol: as §1

U266 (cancer type: MM) = test system: U266 (cancer type: MM)
Protocol: as §1

L363 (cancer type: MM) = test system: L363 (cancer type: MM)
Protocol: as §1

[14] = test system: SU-DHL6 (cancer type: DLBCL)
Protocol: as §1

KMS26 (cancer type: MM) = test system: KMS26 (cancer type: MM)
Protocol: as §1

[15] = test system: OCI-LY3 (cancer type: DLBCL)
Protocol: as §1

Se-Ax (cancer type: TCL) = test system: Se-Ax (cancer type: TCL)
Protocol: as §1

[16] = test system: Karpas-299 (cancer type: TCL)
Protocol: as §1

My-La (cancer type: TCL) = test system: My-La (cancer type: TCL)
Protocol: as §1

XG2 (cancer type: MM) = test system: XG2 (cancer type: MM)
Protocol: as §1

[17] = test system: NCI-H929 (cancer type: MM)
Protocol: as §1

MM1.S (cancer type: MM) = test system: MM1.S (cancer type: MM)
Protocol: as §1

MM1.R (cancer type: MM) = test system: MM1.R (cancer type: MM)
Protocol: as §1

AMO1 (cancer type: MM) = test system: AMO1 (cancer type: MM)
Protocol: as §1

[18] = test system: JVM2 (cancer type: Mantle)
Protocol: as §1

KMS11 (cancer type: MM) = test system: KMS11 (cancer type: MM)
Protocol: as §1

KMS18 (cancer type: MM) = test system: KMS18 (cancer type: MM)
Protocol: as §1

[19] = test system: KMS12PE (cancer type: MM)
Protocol: as §1

[20] = test system: OCI-MY5 (cancer type: MM)
Protocol: as §1

SKMM2 (cancer type: MM) = test system: SKMM2 (cancer type: MM)
Protocol: as §1

[21] = test system: OCI-MY5/CRBN (cancer type: MM)
Protocol: as §1

[22] = test system: OCI-LY1 (cancer type: DLBCL)
Protocol: as §1

Row | Structure (SMILES) | normalized area under the dose-response curve (FR4 (cancer type: MM)) | normalized area under the dose-response curve [1] | normalized area under the dose-response curve [2] | normalized area under the dose-response curve [3] | normalized area under the dose-response curve [4] | normalized area under the dose-response curve [5] | normalized area under the dose-response curve [6] | normalized area under the dose-response curve [7] | normalized area under the dose-response curve [8] | normalized area under the dose-response curve [9] | normalized area under the dose-response curve [10] | normalized area under the dose-response curve (EJM (cancer type: MM)) | normalized area under the dose-response curve (JJN3 (cancer type: MM)) | normalized area under the dose-response curve (KMS34 (cancer type: MM)) | normalized area under the dose-response curve [11] | normalized area under the dose-response curve (OPM2 (cancer type: MM)) | normalized area under the dose-response curve (LP1 (cancer type: MM)) | normalized area under the dose-response curve [12] | normalized area under the dose-response curve [13] | normalized area under the dose-response curve (U266 (cancer type: MM)) | normalized area under the dose-response curve (L363 (cancer type: MM)) | normalized area under the dose-response curve [14] | normalized area under the dose-response curve (KMS26 (cancer type: MM)) | normalized area under the dose-response curve [15] | normalized area under the dose-response curve (Se-Ax (cancer type: TCL)) | normalized area under the dose-response curve [16] | normalized area under the dose-response curve (My-La (cancer type: TCL)) | normalized area under the dose-response curve (XG2 (cancer type: MM)) | normalized area under the dose-response curve [17] | normalized area under the dose-response curve (MM1.S (cancer type: MM)) | normalized area under the dose-response curve (MM1.R (cancer type: MM)) | normalized area under the dose-response curve (AMO1 (cancer type: MM)) | normalized area under the dose-response curve [18] | normalized area under the dose-response curve (KMS11 (cancer type: MM)) | normalized area under the dose-response curve (KMS18 (cancer type: MM)) | normalized area under the dose-response curve [19] | normalized area under the dose-response curve [20] | normalized area under the dose-response curve (SKMM2 (cancer type: MM)) | normalized area under the dose-response curve [21] | normalized area under the dose-response curve [22]
1 | Nc1nc(Cl)nc2c1ncn2[C@H]1C[C@H](O)[C@@H](CO)O1 [Cladribine] | 1.01 | 0.533 | 0.27 | 0.79 | 0.185 | 0.919 | 0.89 | 0.167 | 0.861 | 0.523 | 0.766 | 0.555 | 0.993 | 0.734 | 0.825 | 0.984 | 0.762 | 0.939 | 0.768 | 0.918 | 0.826 | 0.843 | 0.795 | 0.311 | 0.627 | 0.89 | 0.813 | 0.452 | 0.52 | 0.49 | 0.56 | 0.672 | 0.748 | 0.854 | 0.798 | 0.84 | 0.929 | 0.763 | 0.961 | 0.884
2 | Nc1nc(Cl)nc2c1ncn2[C@@H]1O[C@H](CO)[C@@H](O)[C@@H]1F [Clofarabine] | 0.973 | 0.422 | 0.274 | 0.74 | 0.138 | 0.472 | 0.807 | 0.236 | 0.662 | 0.35 | 0.851 | 0.477 | 0.559 | 0.536 | 0.727 | 0.871 | 0.686 | 0.727 | 0.617 | 0.595 | 0.667 | 0.573 | 0.592 | 0.119 | 0.451 | 0.759 | 0.685 | 0.346 | 0.43 | 0.36 | 0.45 | 0.489 | 0.594 | 0.578 | 0.794 | 0.66 | 0.915 | 0.728 | 0.927 | 0.5
3 | O=C(c1ccc(F)c(F)c1Nc1ccc(I)cc1F)N1CC(O)([C@@H]2CCCCN2)C1 [Cobimetinib] | 0.696 | 0.608 | 0.887 | 0.68 | 0.878 | 0.923 | 0.843 | 0.383 | 0.873 | 0.888 | 0.808 | 0.54 | 0.742 | 0.494 | 0.807 | 0.629 | 0.634 | 0.736 | 0.731 | 0.767 | 0.556 | 0.83 | 0.766 | 0.9 | 0.538 | 0.842 | 0.857 | 0.501 | 0.6 | 0.69 | 0.65 | 0.392 | 0.724 | 0.722 | 0.588 | 0.75 | 0.587 | 0.813 | 0.822 | 0.996
4 | CC1(COc2ccc3c(c2)ncn3-c2ccc3cccc(N4CCC(N)CC4)c3n2)COC1 [Crenolanib] | 0.59 | 0.407 | 0.818 | 0.53 | 0.746 | 0.861 | 0.541 | 0.49 | 0.949 | 0.91 | 0.879 | 0.436 | 0.481 | 0.423 | 0.569 | 0.452 | 0.409 | 0.464 | 0.46 | 0.426 | 0.459 | 0.894 | 0.616 | 0.773 | 0.594 | 0.855 | 0.779 | 0.339 | 0.45 | 0.52 | 0.53 | 0.325 | 0.672 | 0.488 | 0.45 | 0.53 | 0.269 | 0.663 | 0.549 | 0.704
5 | C[C@@H](Oc1cc(-c2cnn(C3CCNCC3)c2)cnc1N)c1c(Cl)ccc(F)c1Cl [Crizotinib] | 0.509 | 0.323 | 0.731 | 0.73 | 0.677 | 0.733 | 0.703 | 0.0611 | 0.833 | 0.769 | 0.406 | 0.471 | 0.405 | 0.306 | 0.359 | 0.457 | 0.465 | 0.34 | 0.358 | 0.335 | 0.447 | 0.831 | 0.577 | 0.765 | 0.368 | 0.437 | 0.744 | 0.338 | 0.39 | 0.4 | 0.44 | 0.362 | 0.654 | 0.423 | 0.456 | 0.54 | 0.381 | 0.487 | 0.75 | 0.817
6 | O=P1(N(CCCl)CCCl)NCCCO1 (stereo not given) [Cyclophosphamide] | 0.918 | 0.863 | 0.907 | 0.92 | 0.915 | 0.983 | 0.86 | 0.937 | 0.929 | 1 | 0.911 | 0.93 | 0.95 | 0.791 | 0.928 | 0.912 | 0.977 | 0.887 | 0.923 | 0.862 | 0.831 | 0.969 | 0.956 | 0.885 | 0.865 | 0.931 | 0.962 | 0.878 | 0.93 | 0.9 | 0.88 | 0.884 | 0.943 | 0.822 | 0.944 | 0.91 | 0.913 | 0.949 | 0.972 | 0.958
7 | CC(C)(C)c1nc(-c2cccc(NS(=O)(=O)c3c(F)cccc3F)c2F)c(-c2ccnc(N)n2)s1 [Dabrafenib mesylate] | 0.939 | 0.85 | 0.775 | 0.81 | 0.858 | 0.861 | 0.858 | 0.833 | 0.889 | 0.898 | 0.851 | 0.775 | 0.804 | 0.84 | 0.812 | 0.829 | 0.836 | 0.851 | 0.979 | 0.754 | 0.787 | 0.882 | 0.972 | 0.89 | 0.775 | 0.752 | 0.908 | 0.932 | 0.78 | 0.9 | 0.84 | 0.643 | 0.587 | 0.831 | 0.735 | 0.75 | 0.733 | 0.827 | 0.906 | 0.984
8 | Cc1nc(Nc2ncc(C(=O)Nc3c(C)cccc3Cl)s2)cc(N2CCN(CCO)CC2)n1 [Dasatinib] | 0.816 | 0.731 | 0.745 | 0.82 | 0.778 | 0.718 | 0.79 | 0.862 | 0.894 | 0.783 | 0.843 | 0.702 | 0.581 | 0.612 | 0.768 | 0.802 | 0.712 | 0.739 | 0.994 | 0.616 | 0.813 | 0.754 | 0.868 | 0.727 | 0.82 | 0.875 | 0.841 | 0.746 | 0.74 | 0.75 | 0.76 | 0.72 | 0.611 | 0.686 | 0.765 | 0.48 | 0.701 | 0.906 | 0.824 | 0.66

— the supplement of paper PMC7214452
